In patent US20250263408A1 (Uniquest Pty Ltd, priority 2022, published 2025) one finds IC50 and EC50 data, which are given here for 26 molecules.

Assay [1] addresses T1, Syk (Homo sapiens, UniProt P43405).
T1 construct: purchased Promega
Briefly: Syk Biochemical Assay (ADP-Glo luminescence). The following applies: ATP 40 μM final, 60 minutes, read-out: SYK Biochem IC50. How it is done:
Compounds were serially diluted in 100% DMSO, prior to an intermediate dilution in water. In a low volume white 384-well Proxiplate (Perkin Elmer), 1 μL of compound (0.4% final DMSO) was added to 3 μL of 10 ng/well Syk (Promega) and 0.2 mg/mL Poly-E4Y1 substrate (Promega) in assay buffer (final 40 mM Tris-HCl pH 7.4, 20 mM MgCl2, 0.1 mg/mL BSA) for 5 minutes. The reaction was initiated by addition of 1 μL of ATP (40 μM final) and allowed to proceed for 60 minutes at room temperature. The reaction was terminated by addition of 5 μL of ADP-Glo Reagent Mix (Promega) containing 1 mM MgCl2 for 45 minutes at room temperature. 10 μL of Kinase Detection Reagent (Promega) was added and incubated for 10 minutes at room temperature, before luminescence was measured using an Ensight Multimode Plate Reader (Perkin Elmer).
For orientation: ADP-Glo first removes unused ATP, then detects ADP through luciferase.

The target of assay [2] is T2, Ba/F3-Syk cells (Homo sapiens, UniProt P43405).
T2 construct: fused on or other part: Possible but unprinted fusion partner: TEL (ETV6), the usual partner for Ba/F3 lines transformed by Syk; Nothing on a partner is printed
Briefly: Ba/F3 Proliferation Assay, Ba/F3-Syk cells (Resazurin). Conditions: 48-hour incubation. The format is cell-based. On the technique in general: Alamar Blue is a resazurin reagent that responds to reducing activity.

The test system of assay [3] is Ba/F3-WT (wild type) cells. Briefly: Ba/F3 Proliferation Assay, Ba/F3-WT (wild type) cells with mIL-3 (Resazurin). The format is cell-based. Conditions: Mus musculus, BaF3, 48 h, Ba/F3-WT cells +mIL-3, 48-hour incubation.

As usually defined, the IC50 is the concentration needed to halve the response being measured. One may read the EC50 as the concentration giving half of the maximal effect. Lower therefore signals higher potency in that assay. With `CC(C)(C)n1cc(-c2cc3ncccc3c(OC[C@@H]3CNC[C@@H](C4CC4)O3)n2)cn1` [Compound 2.103, 7-(1-tert-butyl-1H-pyrazol-4-yl)-5-{[(2S,6R)-6-cyclopropylmorpholin-2-yl]methoxy}-1,6-naphthyridine], the IC50 in assay [1] was found to be 30.5 nM. The values for the EC50 in assay [2] and in assay [3] were 32.7 nM and 985 nM, respectively.
For `CC(C)[C@H]1CNC[C@@H](COc2nc(-c3cnn(C(C)(C)C)c3)cc3ncccc23)O1` [Compound 2.104, 7-(1-tert-butyl-1H-pyrazol-4-yl)-5-{[(2S,6S)-6-(propan-2-yl)morpholin-2-yl]methoxy}-1,6-naphthyridine] the same measures were 16.6 nM, 33.1 nM and 1570 nM.
For `CC(C)(C)n1cc(-c2cc3ncccc3c(OC[C@@H]3CNC[C@H](C(F)F)O3)n2)cn1` [Compound 2.105, 7-(1-tert-butyl-1H-pyrazol-4-yl)-5-{[(2S,6R)-6-(difluoromethyl)morpholin-2-yl]methoxy}-1,6-naphthyridine] the same measures were 6.21 nM, 31.1 nM and 1550 nM.
For `CC1(C)CNC[C@@H](COc2cc(-c3cnn(C(C)(C)C)c3)cc3ncccc23)O1` [Compound 3.2, 7-(1-tert-butyl-1H-pyrazol-4-yl)-5-{[(2S)-6,6-dimethylmorpholin-2-yl]methoxy} quinoline] the same measures were 11.8 nM, 23.5 nM and 2370 nM.
In the case of `CC(C)n1cc(-c2cc(OC[C@@H]3CNCCO3)c3cccnc3c2)cn1` [Compound 3.4, 5-{[(2S)-morpholin-2-yl]methoxy}-7-[1-(propan-2-yl)-1H-pyrazol-4-yl]quinoline], the half-maximal inhibitory concentration (IC50) in assay [1] worked out at 29.3 nM. Besides, the half-maximal effective concentration (EC50) in assay [2] came to 47.4 nM; in assay [3], 926 nM.
For `CC1(C)CNC[C@@H](COc2cc(-c3cnn(C4CC4)c3)cc3ncccc23)O1` [Compound 3.8, 7-(1-cyclopropyl-1H-pyrazol-4-yl)-5-{[(2S)-6,6-dimethylmorpholin-2-yl]methoxy}quinoline], in that order: 23.7 nM, 50.9 nM and 1970 nM.
For `CC(C)(C)n1cc(-c2cc(OC[C@@H]3CNCCCO3)c3cccnc3c2)cn1` [Compound 3.14, 7-(1-tert-butyl-1H-pyrazol-4-yl)-5-{[(2S)-1,4-oxazepan-2-yl]methoxy}quinoline], in that order: 57.1 nM, 54.5 nM and 6490 nM.
For `CC(C)(C)n1ccc(-c2cc(OC[C@@H]3CNCCO3)c3cccnc3c2)c1` [Compound 3.15, 7-(1-tert-butyl-1H-pyrrol-3-yl)-5-{[(2S)-morpholin-2-yl]methoxy}quinoline], in that order: 39.6 nM, 30.4 nM and 5840 nM.
On to `Cn1ccc(-c2cc(OC[C@@H]3CNCC4(CC4)O3)c3cccnc3c2)c1` [Compound 3.17, 7-(1-methyl-1H-pyrrol-3-yl)-5-{[(5S)-4-oxa-7-azaspiro[2.5]octan-5-yl]methoxy}quinoline], for which the 50% inhibitory concentration (IC50) in assay [1] stood at 43.7 nM. Moreover, the EC50 in assay [2] was determined as 51.8 nM; in assay [3], 2220 nM.
For `Cn1cc(-c2cc(OC[C@@H]3CNCC4(CC4)O3)c3cccnc3c2)cn1` [Compound 3.19, 7-(1-methyl-1H-pyrazol-4-yl)-5-{[(5S)-4-oxa-7-azaspiro[2.5]octan-5-yl]methoxy}quinoline], in that order: 51.1 nM, 99.1 nM and 6800 nM.
For `CC(C)n1cc(-c2cc(OC[C@@H]3CNC[C@@H](C)O3)c3cccnc3c2)cn1` [Compound 3.23, 5-{[(2S,6R)-6-methylmorpholin-2-yl]methoxy}-7-[1-(propan-2-yl)-1H-pyrazol-4-yl]quinoline] the same measures were 12.6 nM, 12.1 nM and 941 nM.
For `C[C@@H]1CNC[C@@H](COc2cc(-c3ccn(C)c3)cc3ncccc23)O1` [Compound 3.24, 7-(1-methyl-1H-pyrrol-3-yl)-5-{[(2S,6R)-6-methylmorpholin-2-yl]methoxy}quinoline], in that order: 16.4 nM, 28.2 nM and 2260 nM.
`FC(F)Cn1ccc(-c2cc3ncccc3c(OC[C@@H]3CNCCO3)n2)c1` [Compound 6.5, 7-[1-(2,2-difluoroethyl)-1H-pyrrol-3-yl]-5-{[(2S)-morpholin-2-yl]methoxy}-1,6-naphthyridine]: the IC50 in assay [1] was 14.2 nM. Also, the EC50 was 63 nM in assay [2] and 2140 nM in assay [3].
Regarding `COCCn1ccc(-c2cc3ncccc3c(OC[C@@H]3CNCCO3)n2)c1` [Compound 6.10, 7-[1-(2-methoxyethyl)-1H-pyrrol-3-yl]-5-{[(2S)-morpholin-2-yl]methoxy}-1,6-naphthyridine], in assay [1], the half-inhibitory concentration (IC50) is 21.3 nM. The EC50 was 106 nM in assay [2] and 1980 nM in assay [3].
In the case of `c1cnc2cc(-c3ccn(C4COC4)c3)nc(OC[C@@H]3CNCCO3)c2c1` [Compound 6.11, 5-{[(2S)-morpholin-2-yl]methoxy}-7-[1-(oxetan-3-yl)-1H-pyrrol-3-yl]-1,6-naphthyridine], in assay [1], the IC50 worked out at 24.6 nM. The values for the half-maximal effective concentration (EC50) in assay [2] and in assay [3] were 30.7 nM and 1680 nM, respectively.
Regarding `CC1(C)CNC[C@@H](COc2nc(-c3ccn(CC(F)F)c3)cc3ncccc23)O1` [Compound 6.13, 7-[1-(2,2-difluoroethyl)-1H-pyrrol-3-yl]-5-{[(2S)-6,6-dimethylmorpholin-2-yl]methoxy}-1,6-naphthyridine], the half-inhibitory concentration (IC50) in assay [1] turned out to be 14.6 nM. Further, the concentration for a half-maximal effect (EC50) in assay [2] worked out at 21.8 nM; in assay [3] it was 2050 nM.
For `COCCn1ccc(-c2cc3ncccc3c(OC[C@@H]3CNCC(C)(C)O3)n2)c1` [Compound 6.16, 5-{[(2S)-6,6-dimethylmorpholin-2-yl]methoxy}-7-[1-(2-methoxyethyl)-1H-pyrrol-3-yl]-1,6-naphthyridine] the same measures were 28.4 nM, 41.9 nM and 3120 nM.
For `CC1(C)CNC[C@@H](COc2nc(-c3cnn(CC(F)F)c3)cc3ncccc23)O1` [Compound 6.20, 7-[1-(2,2-difluoroethyl)-1H-pyrazol-4-yl]-5-{[(2S)-6,6-dimethylmorpholin-2-yl]methoxy}-1,6-naphthyridine] the same measures were 9.1 nM, 32.1 nM and 2180 nM.
As for `CC(C)n1ccc(-c2cc3ncccc3c(OC[C@@H]3CNCC4(CC4)O3)n2)c1` [Compound 6.22, 5-{[(5S)-4-oxa-7-azaspiro[2.5]octan-5-yl]methoxy}-7-[1-(propan-2-yl)-1-H-pyrrol-3-yl]-1,6-naphthyridine], the IC50 in assay [1] is 14.3 nM. Also, the results for the half-maximal effective concentration (EC50) in assay [2] and in assay [3] were 11.2 nM and 2090 nM, respectively.
Consider `COCCn1ccc(-c2cc3ncccc3c(OC[C@@H]3CNCC4(CC4)O3)n2)c1` [Compound 6.23, 7-[1-(2-methoxyethyl)-1H-pyrrol-3-yl]-5-{[(5S)-4-oxa-7-azaspiro[2.5]octan-5-yl]methoxy}-1,6-naphthyridine], for which, in assay [1], the 50% inhibitory concentration (IC50) is 55.9 nM. Also, the concentration giving a half-maximal response (EC50) in assay [2] was 28.4 nM; in assay [3] it was 2100 nM.
For `CC1(C)CNC[C@@H](COc2nc(-c3ccn(C4COC4)c3)cc3ncccc23)O1` [Compound 6.25, 5-{[(2S)-6,6-dimethylmorpholin-2-yl]methoxy}-7-[1-(oxetan-3-yl)-1H-pyrrol-3-yl]-1,6-naphthyridine], in that order: 20.5 nM, 8.6 nM and 1760 nM.
Regarding `C[C@@H](Oc1nc(-c2ccn(CC(F)F)c2)cc2ncccc12)[C@@H]1CNCCO1` [Compound 6.30, 7-[1-(2,2-difluoroethyl)-1H-pyrrol-3-yl]-5-[(1R)-1-[(2S)-morpholin-2-yl]ethoxy]-1,6-naphthyridine], in assay [1], the IC50 is 14.1 nM. The results for the concentration for a half-maximal effect (EC50) in assay [2] and in assay [3] were 27.7 nM and 1390 nM, respectively.
For `CC1(C)CNC[C@@H](COc2cc(-c3ccn(CC(F)F)c3)cc3ncccc23)O1` [Compound 7.6, 7-[1-(2,2-difluoroethyl)-1H-pyrrol-3-yl]-5-{[(2S)-6,6-dimethylmorpholin-2-yl]methoxy}quinoline], in that order: 17.6 nM, 28.5 nM and 1770 nM.
For `CC(C)n1ccc(-c2cc(OC[C@@H]3CNCCCO3)c3cccnc3c2)c1` [Compound 7.10, 5-{[(2S)-1,4-oxazepan-2-yl]methoxy}-7-[1-(propan-2-yl)-1H-pyrrol-3-yl]quinoline] the same measures were 36.7 nM, 44.7 nM and 3880 nM.
For `c1cnc2cc(-c3ccn(C4COC4)c3)cc(OC[C@@H]3CNCCO3)c2c1` [Compound 7.12, 5-{[(2S)-morpholin-2-yl]methoxy}-7-[1-(oxetan-3-yl)-1H-pyrrol-3-yl]quinoline], in that order: 29.3 nM, 23.3 nM and 1560 nM.
On to `COCCn1ccc(-c2cc(OC[C@@H]3CNCC4(CC4)O3)c3cccnc3c2)c1` [Compound 7.14, 7-[1-(2-methoxyethyl)-1H-pyrrol-3-yl]-5-{[(5S)-4-oxa-7-azaspiro[2.5]octan-5-yl]methoxy}quinoline], for which, in assay [1], the IC50 stood at 51.2 nM. For the same molecule, the results for the EC50 in assay [2] and in assay [3] were 22.5 nM and 3210 nM, respectively.
